Results as given in patent publication US11382915B2, “Treatment of focal segmental glomerulosclerosis with CCR2 antagonists” (CHEMOCENTRYX, INC., priority 2017, dated 2022).
Blank lines part the entries; values can stand above or below the molecule they belong to.

Tests used:
[1] = test system: Adriamycin challenged mice; assay: Adriamycin induced FSGS model; type: in vivo; conditions: for UAER: Adriamycin nephropathy model, Compound 1 90 mg/kg s.c. once daily, RAAS blocker 5 mg/kg orally once daily
Protocol: These experiments were performed using female Balb/c mice (Jackson Laboratories, Bar Harbor, Me.). The mice were kept on standard chow and had free access to water. At age of 10 weeks, 7.5 mg/kg Adriamycin (Selleck Chemicals, Houston, Tex.) or saline (control) was injected via tail vein in isoflurane-anesthetized animals (day 0). […] The RAAS blocker Candesartan (AK Scientific, Union City, Calif.) and its vehicle were dosed orally once daily at 5 mg/kg, formulated in water. All dosing started 2 hours prior Adriamycin challenge. The mice were housed individually in metabolic cages for quantitative collection of urinary albumin and creatinine. Chemotaxis, calcium mobilization, and radio-ligand binding assays were conducted as previously described (Sullivan et al, 2013; Walters et al, 2010). Inhibition values (IC50) were calculated using non-linear regression with a one-site competition model (GraphPad Prism, GraphPad Software, La Jolla, Calif.). A2 values for assessment of potency in chemotaxis assays denotes the concentration of the antagonist required to right-shift by 2-fold the chemokine dose-response curve. […] Urinary albumin was measured by ELISA (Bethyl Labs, Montgomery, Tex.). Urinary and serum creatinine was measured by LC-MS/MS at ChemoCentryx. The urinary albumin excretion rate (UAER) was calculated as micrograms per 24 h. Blood urea nitrogen (BUN) was measured by Antech Diagnostics (Morrisville, N.C.). The albumin to creatinine ratio (ACR) was calculated as micrograms of albumin per milligram of creatinine. […] Adriamycin is an oncolytic antibiotic that induces proteinuria and glomerulosclerosis in rodents after a single infusion. […] The level of protection was equal to or better than that of RAAS blockade.

[2] = test system: partially nephrectomized mice; assay: 5/6 nephrectomy model; type: in vivo; set-up: reduction in UACR / UACR reduction vs vehicle: concentration or dose not given beside the values; conditions: for UACR reduction vs vehicle: 5/6 nephrectomy model (Example 7, FIG. 8), week one; for reduction in UACR: mono-therapy
Protocol: (§1) 5/6 nephrectomy mice on the 129X1/SvJ background were obtained from Jackson Laboratories, and were received at ChemoCentryx after the surgery was performed at JAX. Under isoflurane anesthesia, two-thirds of the left kidney mass was removed at 5-6 weeks of age. Then, after 7 to 10 days, a right unilateral nephrectomy was performed. The mice were fed a standard chow and had free access to water. Three weeks after the 5/6 nephrectomy, the mice were grouped to ensure a similar starting UAER in each treatment group. […] The RAAS blocker candesartan (AK Scientific, Union City, Calif.) and its vehicle were dosed orally once daily at 5 mg/kg formulated in water. Sparsentan, the dual-acting receptor antagonist for endothelin (A type) and angiotensin II receptors (Type 1) (Murugesan et al, 2005) was synthesized at ChemoCentryx and was dosed orally twice daily at 90 mg/kg formulated in 1% HPMC. The mice were housed individually in metabolic cages for quantitative collection of urinary albumin and creatinine.
(§2) Chemotaxis, calcium mobilization, and radio-ligand binding assays were conducted as previously described (Sullivan et al, 2013; Walters et al, 2010). Inhibition values (IC50) were calculated using non-linear regression with a one-site competition model (GraphPad Prism, GraphPad Software, La Jolla, Calif.). A2 values for assessment of potency in chemotaxis assays denotes the concentration of the antagonist required to right-shift by 2-fold the chemokine dose-response curve. […] Urinary albumin was measured by ELISA (Bethyl Labs, Montgomery, Tex.). Urinary and serum creatinine was measured by LC-MS/MS at ChemoCentryx. The urinary albumin excretion rate (UAER) was calculated as micrograms per 24 h. Blood urea nitrogen (BUN) was measured by Antech Diagnostics (Morrisville, N.C.). The albumin to creatinine ratio (ACR) was calculated as micrograms of albumin per milligram of creatinine.
To corroborated the above findings, another FSGS model mechanistically distinct from the Adriamycin approach was tested, the 5/6 nephrectomy model. Beginning three weeks after the completion of surgery, the mice were treated with Compound 1 or RAAS blocker either alone or in combination. As above, renal function was quantified by measuring the UACR, UAER serum creatinine and BUN levels.

[3] = target: T1, CXCR2 (Homo sapiens, UniProt P25025); assay: CXCR2 Neutrophil Calcium Mobilization; type: cell-based; conditions: read-out: Potency (IC50), CXCR2
T1 construct: Human monocytes and neutrophils were isolated from healthy volunteers; host or cells: primary human neutrophils
Protocol: as §2

[4] = Mouse pharmacokinetic (PK) study; type: in vivo; conditions: male, 129s, plasma, sc, mice, single s.c. injection at 90 mg/kg, 24 hours post-dosing
Protocol: Blood was drawn at 0.5, 2, […], 4, 8, 12, and 24 hours post-dosing. Compound 1 drug level was analyzed by LC-MS/MS at ChemoCentryx with plasma samples.
To determine if Compound 1 was suitable for in vivo experiments, we analyzed its pharmacokinetic profile in mice.

[5] = target: T2, C5aR (Homo sapiens, UniProt P21730); assay: C5aR Neutrophil Calcium Mobilization; type: cell-based; conditions: read-out: Potency (IC50), C5aR
T2 construct: Human monocytes and neutrophils were isolated from healthy volunteers; host or cells: primary human neutrophils
T2 sequence (P21730 whole entry): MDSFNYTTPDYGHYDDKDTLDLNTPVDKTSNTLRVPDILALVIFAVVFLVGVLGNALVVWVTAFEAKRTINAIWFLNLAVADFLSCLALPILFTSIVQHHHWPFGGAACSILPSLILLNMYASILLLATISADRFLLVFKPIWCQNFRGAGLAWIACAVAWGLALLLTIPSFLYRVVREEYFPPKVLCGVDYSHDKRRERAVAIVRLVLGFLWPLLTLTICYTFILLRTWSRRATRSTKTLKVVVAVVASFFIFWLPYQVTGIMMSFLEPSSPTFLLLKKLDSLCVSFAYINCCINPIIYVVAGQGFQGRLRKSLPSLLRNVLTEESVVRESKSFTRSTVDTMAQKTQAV
Protocol: as §2

[6] = target: T3, CXCR5 (Homo sapiens, UniProt P32302); assay: Baf3-CXCR5 Calcium Mobilization; type: cell-based; conditions: read-out: Potency (IC50), CXCR5
T3 construct: expressed in transfected cells; host or cells: Baf3
T3 sequence (P32302 whole entry): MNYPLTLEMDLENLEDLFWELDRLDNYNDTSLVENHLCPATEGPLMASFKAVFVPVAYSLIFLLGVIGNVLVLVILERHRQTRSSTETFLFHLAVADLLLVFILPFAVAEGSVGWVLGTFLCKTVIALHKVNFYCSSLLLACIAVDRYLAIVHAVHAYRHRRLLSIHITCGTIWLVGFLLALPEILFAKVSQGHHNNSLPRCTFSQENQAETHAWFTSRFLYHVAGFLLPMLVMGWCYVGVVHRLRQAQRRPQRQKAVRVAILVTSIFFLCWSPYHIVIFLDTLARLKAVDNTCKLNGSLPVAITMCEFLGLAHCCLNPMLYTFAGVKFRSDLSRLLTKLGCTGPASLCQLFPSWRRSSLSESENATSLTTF
Protocol: as §2

[7] = target: T4, CCR7 (Homo sapiens, UniProt P32248); assay: CCR7 Activated Lymphocyte Calcium Mobilization; type: cell-based; conditions: read-out: Potency (IC50), CCR7
T4 construct: endogenous in cells
T4 sequence (P32248 25-378): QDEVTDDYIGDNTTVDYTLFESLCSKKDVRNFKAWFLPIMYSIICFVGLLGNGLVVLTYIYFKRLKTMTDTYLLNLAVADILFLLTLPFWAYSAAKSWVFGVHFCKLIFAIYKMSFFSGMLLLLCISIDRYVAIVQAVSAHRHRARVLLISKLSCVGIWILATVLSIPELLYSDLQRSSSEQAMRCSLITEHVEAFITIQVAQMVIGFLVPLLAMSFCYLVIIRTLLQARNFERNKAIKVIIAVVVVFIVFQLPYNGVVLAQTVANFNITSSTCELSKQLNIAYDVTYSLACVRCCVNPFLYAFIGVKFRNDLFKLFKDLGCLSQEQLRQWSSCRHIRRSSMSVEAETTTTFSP
Protocol: as §2

[8] = target: T5, CCR8 (Homo sapiens, UniProt P51685); assay: 293-CCR8 Calcium Mobilization; type: cell-based; conditions: read-out: Potency (IC50), CCR8
T5 construct: expressed in transfected cells; host or cells: 293
Protocol: as §2

[9] = target: T6, CXCR4 (Homo sapiens, UniProt P61073); assay: CXCR4 Activated Lymphocyte Calcium Mobilization; type: cell-based; conditions: read-out: Potency (IC50), CXCR4
T6 construct: endogenous in cells
T6 sequence (P61073 whole entry): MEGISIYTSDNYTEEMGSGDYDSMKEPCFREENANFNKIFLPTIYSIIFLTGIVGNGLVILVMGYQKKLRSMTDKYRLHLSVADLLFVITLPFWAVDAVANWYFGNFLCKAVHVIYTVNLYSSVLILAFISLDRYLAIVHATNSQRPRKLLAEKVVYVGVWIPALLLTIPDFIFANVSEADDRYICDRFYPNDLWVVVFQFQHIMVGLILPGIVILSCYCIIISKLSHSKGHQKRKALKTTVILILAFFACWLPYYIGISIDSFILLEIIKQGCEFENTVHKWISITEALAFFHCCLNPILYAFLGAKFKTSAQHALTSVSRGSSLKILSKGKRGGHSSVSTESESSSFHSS
Protocol: as §2

[10] = target: T7, CCR2 (Mus musculus, UniProt P51683); assay: Inhibition of radio-labeled mJE (CCL2) binding to WEHI-274 cells; conditions: WEHI-274 murine monocyte cell line endogenously expressing CCR2
T7 construct: WEHI-274 murine monocyte cell line that endogenously expresses CCR2; host or cells: WEHI-274.1
T7 sequence (P51683 whole entry): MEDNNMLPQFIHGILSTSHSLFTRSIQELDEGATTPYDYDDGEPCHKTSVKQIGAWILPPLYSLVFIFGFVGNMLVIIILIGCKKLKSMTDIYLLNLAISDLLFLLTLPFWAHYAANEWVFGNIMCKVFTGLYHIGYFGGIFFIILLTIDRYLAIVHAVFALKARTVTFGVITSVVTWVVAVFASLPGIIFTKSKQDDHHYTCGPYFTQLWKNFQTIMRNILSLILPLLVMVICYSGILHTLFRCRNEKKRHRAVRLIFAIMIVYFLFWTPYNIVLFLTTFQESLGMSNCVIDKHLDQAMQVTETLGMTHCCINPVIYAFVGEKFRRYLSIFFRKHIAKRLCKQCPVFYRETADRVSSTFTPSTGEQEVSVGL
Protocol: as §2

[11] = target: T8, CCR9 (Homo sapiens, UniProt P51686); assay: CCR9 Molt4 Serum Chemotaxis; type: cell-based; conditions: read-out: Potency (IC50), CCR9
T8 construct: cell lines that either endogenously expressed certain chemokine receptors; endogenous in cells; host or cells: Molt4
Protocol: as §2

[12] = target: T9, CCR6 (Homo sapiens, UniProt P51684); assay: CCR6 Activated Lymphocyte Calcium Mobilization; type: cell-based; conditions: read-out: Potency (IC50), CCR6
T9 construct: endogenous in cells
T9 sequence (P51684 whole entry): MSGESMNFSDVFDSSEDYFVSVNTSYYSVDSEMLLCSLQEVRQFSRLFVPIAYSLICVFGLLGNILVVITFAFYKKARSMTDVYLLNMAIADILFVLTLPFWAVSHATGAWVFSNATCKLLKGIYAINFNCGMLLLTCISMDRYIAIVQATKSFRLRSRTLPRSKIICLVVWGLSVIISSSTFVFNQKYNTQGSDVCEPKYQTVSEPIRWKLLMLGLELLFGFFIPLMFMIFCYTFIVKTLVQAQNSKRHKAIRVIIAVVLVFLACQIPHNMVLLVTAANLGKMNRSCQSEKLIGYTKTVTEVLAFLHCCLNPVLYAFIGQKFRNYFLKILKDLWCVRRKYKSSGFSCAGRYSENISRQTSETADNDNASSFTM
Protocol: as §2

[13] = target: T10, CXCR6 (Homo sapiens, UniProt O00574); assay: CXCR6 Activated Lymphocyte Buffer Chemotaxis; type: cell-based; conditions: read-out: Potency (IC50), CXCR6
T10 construct: endogenous in cells
Protocol: as §2

[14] = target: T11, CCR1 (Homo sapiens, UniProt P32246); assay: CCR1 Monocyte Chemotaxis; type: cell-based; conditions: read-out: Potency (IC50), CCR1
T11 construct: Human monocytes and neutrophils were isolated from healthy volunteers; host or cells: primary human monocytes
T11 sequence (P32246 whole entry): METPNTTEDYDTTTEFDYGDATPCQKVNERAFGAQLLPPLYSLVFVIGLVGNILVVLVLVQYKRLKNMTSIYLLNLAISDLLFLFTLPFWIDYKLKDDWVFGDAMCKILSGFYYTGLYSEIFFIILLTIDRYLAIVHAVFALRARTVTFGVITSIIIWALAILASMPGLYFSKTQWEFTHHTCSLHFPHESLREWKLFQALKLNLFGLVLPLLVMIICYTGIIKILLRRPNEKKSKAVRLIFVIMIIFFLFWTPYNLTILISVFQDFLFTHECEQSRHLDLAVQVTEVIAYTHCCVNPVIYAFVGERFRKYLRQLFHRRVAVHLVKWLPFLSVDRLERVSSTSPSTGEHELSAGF
Protocol: as §2

[15] = target: T12, CCR4 (Homo sapiens, UniProt P51679); assay: CCR4 Activated Lymphocyte Calcium Mobilization; type: cell-based; conditions: read-out: Potency (IC50), CCR4
T12 construct: endogenous in cells
T12 sequence (P51679 whole entry): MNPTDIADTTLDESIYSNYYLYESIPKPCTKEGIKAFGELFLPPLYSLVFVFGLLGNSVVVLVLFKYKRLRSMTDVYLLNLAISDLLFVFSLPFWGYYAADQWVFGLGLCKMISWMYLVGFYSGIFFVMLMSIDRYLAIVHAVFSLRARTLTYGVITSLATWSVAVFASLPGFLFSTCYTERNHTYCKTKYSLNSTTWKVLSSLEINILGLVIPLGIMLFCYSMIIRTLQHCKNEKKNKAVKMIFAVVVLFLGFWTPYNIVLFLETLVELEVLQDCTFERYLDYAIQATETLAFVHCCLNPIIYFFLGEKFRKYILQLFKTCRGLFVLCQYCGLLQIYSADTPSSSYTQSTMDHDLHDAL
Protocol: as §2

[16] = target: T13, CXCR3 (Homo sapiens, UniProt P49682); assay: CXCR3 Activated Lymphocyte Calcium Mobilization; type: cell-based; conditions: read-out: Potency (IC50), CXCR3
T13 construct: endogenous in cells
T13 sequence (P49682 whole entry): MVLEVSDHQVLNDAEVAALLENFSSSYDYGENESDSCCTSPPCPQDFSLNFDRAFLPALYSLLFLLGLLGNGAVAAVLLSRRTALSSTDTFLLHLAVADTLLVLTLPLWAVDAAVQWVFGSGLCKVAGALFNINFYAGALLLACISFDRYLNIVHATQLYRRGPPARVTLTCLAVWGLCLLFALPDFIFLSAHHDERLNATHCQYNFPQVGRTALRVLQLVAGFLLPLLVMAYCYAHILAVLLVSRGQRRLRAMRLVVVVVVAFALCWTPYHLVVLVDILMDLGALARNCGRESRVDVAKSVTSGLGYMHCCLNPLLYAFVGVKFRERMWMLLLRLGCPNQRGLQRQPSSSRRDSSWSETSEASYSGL
Protocol: as §2

[17] = target: T14, CXCR7 (Homo sapiens, UniProt P25106); assay: 293-CXCR7 Radio-ligand Binding; conditions: read-out: Potency (IC50), CXCR7
T14 construct: expressed in transfected cells; host or cells: 293
T14 sequence (P25106 whole entry): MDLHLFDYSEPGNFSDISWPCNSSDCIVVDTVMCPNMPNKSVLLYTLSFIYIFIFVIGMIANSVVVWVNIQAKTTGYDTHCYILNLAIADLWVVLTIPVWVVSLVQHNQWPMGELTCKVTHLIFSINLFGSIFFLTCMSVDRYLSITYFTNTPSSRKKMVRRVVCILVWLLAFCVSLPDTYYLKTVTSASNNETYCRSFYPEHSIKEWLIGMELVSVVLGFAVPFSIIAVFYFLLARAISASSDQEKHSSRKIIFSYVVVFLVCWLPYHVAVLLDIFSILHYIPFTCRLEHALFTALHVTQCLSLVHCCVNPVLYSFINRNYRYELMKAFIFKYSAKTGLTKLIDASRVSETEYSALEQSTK
Protocol: as §2

[18] = target: T15, C3aR (Homo sapiens, UniProt Q16581); assay: C3aR Neutrophil Calcium Mobilization; type: cell-based; conditions: read-out: Potency (IC50), C3aR
T15 construct: Human monocytes and neutrophils were isolated from healthy volunteers; host or cells: primary human neutrophils
T15 sequence (Q16581 whole entry): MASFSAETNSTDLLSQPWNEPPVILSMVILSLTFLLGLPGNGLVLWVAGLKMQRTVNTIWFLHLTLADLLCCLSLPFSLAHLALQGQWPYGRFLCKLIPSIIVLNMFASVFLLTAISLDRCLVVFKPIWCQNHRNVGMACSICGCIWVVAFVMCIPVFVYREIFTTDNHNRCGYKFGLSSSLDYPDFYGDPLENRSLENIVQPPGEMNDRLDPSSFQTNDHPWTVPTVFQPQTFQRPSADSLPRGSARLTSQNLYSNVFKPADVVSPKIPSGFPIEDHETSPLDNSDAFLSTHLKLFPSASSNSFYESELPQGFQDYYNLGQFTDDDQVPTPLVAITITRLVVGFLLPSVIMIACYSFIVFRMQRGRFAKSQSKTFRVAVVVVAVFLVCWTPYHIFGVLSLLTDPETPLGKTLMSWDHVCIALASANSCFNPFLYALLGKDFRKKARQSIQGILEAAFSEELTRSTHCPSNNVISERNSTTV
Protocol: as §2

[19] = test system: kidneys of 5/6 nephrectomized mice; assay: Histological analysis of kidneys from the 5/6 nephrectomy model; type: in vivo
Protocol: as §1, with “Sparsentan, the dual-acting receptor antagonist for endothelin (A type) and angiotensin II receptors (Type 1) (Murugesan et al, 2005) was synthesized at ChemoCentryx and was dosed orally twice daily at 90 mg/kg formulated in 1% HPMC.” left out
The kidneys were collected, fixed in formalin, embedded in paraffin, and cut into 5-μm-thick sections. […] Glomerular hypertrophy, mesangial expansion, glomerular sclerosis, and tubular structure were determined by examination of sections by an observer blinded to the treatment groups.
Fixed kidney sections were obtained from 5/6 nephrectomized mice for pathology. The sections were stained and evaluated to determine whether the Compound 1-mediated improvements in renal function were associated with anatomical changes.

[20] = target: T16, CCR10 (Homo sapiens, UniProt P46092); assay: 293-CCR10 Calcium Mobilization; type: cell-based; conditions: read-out: Potency (IC50), CCR10
T16 construct: expressed in transfected cells; host or cells: 293
Protocol: as §2

[21] = target: T17, CCR2 (Homo sapiens, UniProt P41597); assay: CCR2 ThP1 Cell Chemotaxis; type: cell-based; conditions: read-out: Potency (IC50), CCR2
T17 construct: cell lines that either endogenously expressed certain chemokine receptors; host or cells: ThP1
Protocol: as §2

[22] = target: T18, CCR3 (Homo sapiens, UniProt P51677); assay: 293-CCR3 Calcium Mobilization; type: cell-based; conditions: read-out: Potency (IC50), CCR3
T18 construct: expressed in transfected cells; host or cells: 293
T18 sequence (P51677 whole entry): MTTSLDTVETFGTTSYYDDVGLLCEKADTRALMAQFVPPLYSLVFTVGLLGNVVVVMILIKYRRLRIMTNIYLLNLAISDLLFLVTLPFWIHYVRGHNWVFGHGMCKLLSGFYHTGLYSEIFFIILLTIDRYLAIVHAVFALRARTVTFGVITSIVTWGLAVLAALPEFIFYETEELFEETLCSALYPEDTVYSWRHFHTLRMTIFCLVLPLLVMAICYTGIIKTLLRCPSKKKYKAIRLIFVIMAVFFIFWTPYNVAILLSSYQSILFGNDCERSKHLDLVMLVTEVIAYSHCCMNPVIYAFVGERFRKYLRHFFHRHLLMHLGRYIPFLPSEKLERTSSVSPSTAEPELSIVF
Protocol: as §2

[23] = target: T19, CXCR1 (Homo sapiens, UniProt P25024); assay: CXCR1 Neutrophil Calcium Mobilization; type: cell-based; conditions: read-out: Potency (IC50), CXCR1
T19 construct: Human monocytes and neutrophils were isolated from healthy volunteers; host or cells: primary human neutrophils
T19 sequence (P25024 whole entry): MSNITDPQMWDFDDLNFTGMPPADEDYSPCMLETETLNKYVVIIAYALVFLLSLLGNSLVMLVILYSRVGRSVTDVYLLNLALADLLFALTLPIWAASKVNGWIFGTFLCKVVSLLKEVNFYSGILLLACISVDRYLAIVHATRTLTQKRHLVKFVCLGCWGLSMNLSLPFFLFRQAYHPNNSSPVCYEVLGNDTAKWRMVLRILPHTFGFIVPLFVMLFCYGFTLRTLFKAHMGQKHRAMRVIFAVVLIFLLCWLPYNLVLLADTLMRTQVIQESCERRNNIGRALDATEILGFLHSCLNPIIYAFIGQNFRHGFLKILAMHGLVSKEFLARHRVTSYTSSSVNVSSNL
Protocol: as §2

[24] = 5/6 nephrectomy model (Table 3), Week 1, Compound 1 90 mg/kg, RAAS Blocker 5 mg/kg
[25] = 5/6 nephrectomy model (Table 3), Week 2, Compound 1 90 mg/kg, RAAS Blocker 5 mg/kg
[26] = 5/6 nephrectomy model (Table 3), Week 3, Compound 1 90 mg/kg, RAAS Blocker 5 mg/kg
[27] = 5/6 nephrectomy model, comparison with ET1/AT2 dual inhibitor (Table 4), Week 1
[28] = 5/6 nephrectomy model, comparison with ET1/AT2 dual inhibitor (Table 4), Week 2
[29] = 5/6 nephrectomy model, comparison with ET1/AT2 dual inhibitor (Table 4), Week 4

Structure (SMILES): CCOc1nc2cccc(C(=O)O)c2n1Cc1ccc(-c2ccccc2-c2nnn[nH]2)cc1 [RAAS Blocker, Candesartan, reference compound]
- UAER ([1]; Week 1): 39.46, p = 0.16 mg/day
- UAER ([1]; Week 2): 66.87 mg/day
- UACR reduction vs vehicle [2]: 73.4%
- UAER [2, 24]: 8.27, p = 0.03 mg/day
- UAER [2, 25]: 3.62, p = 0.03 mg/day
- UAER [2, 26]: 3.32, p < 0.0001 mg/day
- UAER [2, 27]: 9.4, p = 0.27 mg/day
- UAER [2, 28]: 7.7, p = 0.06 mg/day
- UAER [2, 29]: 1.7, p = 0.02 mg/day

Structure (SMILES): CCCCC1=NC2(CCCC2)C(=O)N1Cc1ccc(-c2ccccc2S(=O)(=O)Nc2noc(C)c2C)c(COCC)c1 [ET1/AT2 Dual Blocker, Sparsentan, reference compound]
- UACR reduction vs vehicle [2]: 93.5%
- UAER [2, 27]: 2.6, p = 0.036 mg/day
- UAER [2, 28]: 1.5, p = 0.01 mg/day
- UAER [2, 29]: 1.15, p = 0.001 mg/day

- IC50 [3]: > 10 µM
- concentration at 24 h [4]: ~3.5 µM
- IC50 [5]: > 10 µM
- IC50 [6]: > 10 µM
- IC50 [7]: > 10 µM
- IC50 [8]: > 10 µM
- IC50 [9]: > 10 µM
- IC50 [10]: 270 nM
- IC50 [11]: > 10 µM
- IC50 [12]: > 8 µM
- IC50 [13]: > 10 µM
- IC50 [14]: > 10 µM
- IC50 [15]: > 10 µM
- IC50 [16]: > 10 µM
- IC50 [17]: > 10 µM
- IC50 [18]: > 10 µM
- IC50 [20]: > 10 µM
- IC50 [21]: 0.5 nM
- IC50 [22]: > 10 µM
- IC50 [23]: > 10 µM
Structure (SMILES): Cc1cnc(C(=O)c2ccnc3[nH]ccc23)c(NS(=O)(=O)c2ccc(Cl)c(C(F)(F)F)c2)c1 [Compound 1]
- UAER ([1]; Week 1): 26.15, p = 0.06 mg/day
- UAER ([1]; Week 2): 24.19, p = 0.032 mg/day
- UAER, in words ([1]; Adriamycin treated mice): significant reduction
- kidney histology at 400× magnification (glomeruli), in words [19]: decreased glomerular sclerosis, mesangial expansion, hyaline deposits and tubular collapse
- kidney histology at 100× magnification, in words ([19]; with respect to vehicle control): reductions in tubular dilation and hyaline deposits
- UACR reduction vs vehicle [2]: 64.8%
- UAER [2, 24]: 15.68, p = 0.30 mg/day
- UAER [2, 25]: 6.72, p = 0.07 mg/day
- UAER [2, 26]: 11.75, p = 0.001 mg/day
- UAER [2, 27]: 7.1, p = 0.07 mg/day
- UAER [2, 28]: 11.0, p = 0.1 mg/day
- UAER [2, 29]: 2.8, p = 0.02 mg/day
- UACR, in words ([2]; 5/6 nephrectomy model, four-week study): markedly reduced
- reduction in UACR ([2]; 5/6 nephrectomy model, week four): 57%
- reduction in UACR ([2]; 5/6 nephrectomy model, week three): 72%
- creatinine and BUN, in words ([2]; 5/6 nephrectomy model, with respect to vehicle control, four-week time point): marked reductions
